Test results as given in ChEMBL document CHEMBL5241092, “The antibacterial activity of fluoroquinolone derivatives: An update (2018-2021)” (2021).
Converted amounts (≈) assume the structure as drawn.

Assays:
Format in all cases: functional
[1] = system: Klebsiella pneumoniae; experiment: Antibacterial activity against Klebsiella pneumoniae
[2] = system: Pseudomonas aeruginosa; experiment: Antibacterial activity against Pseudomonas aeruginosa
[3] = system: Escherichia coli; experiment: Antibacterial activity against Escherichia coli
[4] = system: Staphylococcus aureus; experiment: Antibacterial activity against Staphylococcus aureus
[5] = system: Staphylococcus epidermidis; experiment: Antibacterial activity against Staphylococcus epidermidis
[6] = system: Yersinia pseudotuberculosis; experiment: Antibacterial activity against Yersinia pseudotuberculosis
[7] = system: Listeria monocytogenes; experiment: Antibacterial activity against Listeria monocytogenes
[8] = system: Lactobacillus acidophilus; experiment: Antibacterial activity against Lactobacillus acidophilus
[9] = system: Enterococcus faecalis; experiment: Antibacterial activity against Enterococcus faecalis
[10] = system: Bacillus subtilis; experiment: Antibacterial activity against Bacillus subtilis
[11] = system: Bacillus cereus; experiment: Antibacterial activity against Bacillus cereus

SMILES: CCN1CCN(c2cc3c(cc2F)c(=O)c(C(=O)O)cn3CC)CC1
- MIC [1]: 1.1 µg/mL (≈ 3.17 µM)
- MIC [2]: 1.1 µg/mL (≈ 3.17 µM)
- MIC [3]: 1.1 µg/mL (≈ 3.17 µM)
- MIC [4]: 1.1 µg/mL (≈ 3.17 µM)

SMILES: CC[C@H](C)[C@H](NC(=O)[C@H](CCCCN)NC(=O)[C@H](CCCCN)NC(=O)[C@H](C)NC(=O)[C@H](CC(C)C)NC(=O)[C@H](C)NC(=O)[C@H](C)NC(=O)[C@H](CC(C)C)NC(=O)[C@H](C)NC(=O)[C@H](CCCCN)NC(=O)[C@H](CC(C)C)NC(=O)[C@H](CC(N)=O)NC(=O)[C@@H](NC(=O)[C@H](CCCCN)NC(=O)CNC(=O)[C@H](CC(C)C)NC(=O)[C@H](CC(C)C)NC(=O)[C@H](Cc1ccc(O)cc1)NC(=O)CNC(=O)[C@H](C)NC(=O)CCSSCCC(=O)N1CCN(c2cc3c(cc2F)c(=O)c(C(=O)O)cn3C2CC2)CC1)[C@@H](C)CC)C(=O)N[C@@H](CC(C)C)C(N)=O
- MIC90 [2]: 0.025 µg/mL (≈ 0.0093 µM)
- MIC90 [3]: 0.025 µg/mL (≈ 0.0093 µM)
- MIC90 [4]: 0.025 µg/mL (≈ 0.0093 µM)
- MIC90 [5]: 0.025 µg/mL (≈ 0.0093 µM)

SMILES: COc1c(N2C[C@H]3CCCN(Cc4ccc(Cl)cc4)[C@H]3C2)c(F)cc2c(=O)c(C(=O)O)cn(C3CC3)c12
- MIC [6]: < 2.39 µg/mL
- MIC [1]: < 2.39 µg/mL
- MIC [2]: < 2.39 µg/mL
- MIC [3]: < 2.39 µg/mL
- MIC [7]: < 2.39 µg/mL
- MIC [8]: < 2.39 µg/mL
- MIC [4]: < 2.39 µg/mL
- MIC [9]: < 2.39 µg/mL

SMILES: O=C(O)c1cn(C2CC2)c2cc(N3CCN(Cn4nc(-c5cccnc5)oc4=S)CC3)c(F)cc2c1=O
- MIC [2]: 0.031 µg/mL (≈ 0.0593 µM)
- MIC [3]: 0.031 µg/mL (≈ 0.0593 µM)
- MIC [10]: 0.031 µg/mL (≈ 0.0593 µM)
- MIC [4]: 0.031 µg/mL (≈ 0.0593 µM)

SMILES: COc1c(N2C[C@H]3CCCN(Cc4ccc(C)cc4)[C@H]3C2)c(F)cc2c(=O)c(C(=O)O)cn(C3CC3)c12
- MIC [6]: < 2.39 µg/mL
- MIC [1]: < 2.39 µg/mL
- MIC [2]: < 2.39 µg/mL
- MIC [3]: < 2.39 µg/mL
- MIC [7]: < 2.39 µg/mL
- MIC [8]: < 2.39 µg/mL
- MIC [4]: < 2.39 µg/mL
- MIC [9]: < 2.39 µg/mL

SMILES: COc1c(N2C[C@H]3CCCN(Cc4ccccc4)[C@H]3C2)c(F)cc2c(=O)c(C(=O)O)cn(C3CC3)c12
- MIC [6]: < 2.39 µg/mL
- MIC [1]: < 2.39 µg/mL
- MIC [2]: < 2.39 µg/mL
- MIC [3]: < 2.39 µg/mL
- MIC [7]: < 2.39 µg/mL
- MIC [8]: < 2.39 µg/mL
- MIC [4]: < 2.39 µg/mL
- MIC [9]: < 2.39 µg/mL

SMILES: COc1c(N2C[C@H]3CCCN(Cc4ccc([N+](=O)[O-])cc4)[C@H]3C2)c(F)cc2c(=O)c(C(=O)O)cn(C3CC3)c12
- MIC [6]: < 2.39 µg/mL
- MIC [1]: < 2.39 µg/mL
- MIC [2]: < 2.39 µg/mL
- MIC [3]: < 2.39 µg/mL
- MIC [7]: < 2.39 µg/mL
- MIC [8]: < 2.39 µg/mL
- MIC [4]: < 2.39 µg/mL
- MIC [9]: < 2.39 µg/mL

SMILES: COc1c(N2C[C@H]3CCCN(C(=O)c4ccc(C)cc4)[C@H]3C2)c(F)cc2c(=O)c(C(=O)O)cn(C3CC3)c12
- MIC [11]: ≤ 1.23 µg/mL
- MIC [6]: < 1.23 µg/mL
- MIC [1]: < 1.23 µg/mL
- MIC [2]: < 1.23 µg/mL
- MIC [3]: < 1.23 µg/mL
- MIC [7]: ≤ 1.23 µg/mL
- MIC [8]: < 1.23 µg/mL
- MIC [4]: ≤ 1.23 µg/mL
- MIC [9]: ≤ 1.23 µg/mL

SMILES: COc1c(N2C[C@H]3CCCN(S(=O)(=O)c4ccc(F)cc4)[C@H]3C2)c(F)cc2c(=O)c(C(=O)O)cn(C3CC3)c12
- MIC [6]: < 2.42 µg/mL
- MIC [1]: < 2.42 µg/mL
- MIC [2]: < 2.42 µg/mL
- MIC [3]: < 2.42 µg/mL
- MIC [7]: < 2.42 µg/mL
- MIC [8]: < 2.42 µg/mL
- MIC [4]: < 2.42 µg/mL
- MIC [9]: < 2.42 µg/mL

SMILES: COc1c(N2C[C@H]3CCCN(C(=O)c4ccccc4)[C@H]3C2)c(F)cc2c(=O)c(C(=O)O)cn(C3CC3)c12
- MIC [11]: < 1.23 µg/mL
- MIC [6]: < 1.23 µg/mL
- MIC [1]: < 1.23 µg/mL
- MIC [2]: < 1.23 µg/mL
- MIC [3]: < 1.23 µg/mL
- MIC [7]: < 1.23 µg/mL
- MIC [8]: < 1.23 µg/mL
- MIC [4]: < 1.23 µg/mL
- MIC [9]: < 1.23 µg/mL

SMILES: CCn1c(S)nnc1CN1CCN(c2cc3c(cc2F)c(=O)c(C(=O)O)cn3CC)CC1
- MIC [11]: < 0.24 µg/mL
- MIC [6]: < 0.24 µg/mL
- MIC [2]: < 0.24 µg/mL
- MIC [3]: < 0.24 µg/mL
- MIC [4]: < 0.24 µg/mL
- MIC [9]: < 0.24 µg/mL

SMILES: COc1c(N2C[C@H]3CCCN(C(=O)c4ccc([N+](=O)[O-])cc4)[C@H]3C2)c(F)cc2c(=O)c(C(=O)O)cn(C3CC3)c12
- MIC [11]: ≤ 1.23 µg/mL
- MIC [6]: < 1.23 µg/mL
- MIC [1]: < 1.23 µg/mL
- MIC [2]: < 1.23 µg/mL
- MIC [3]: < 1.23 µg/mL
- MIC [7]: ≤ 1.23 µg/mL
- MIC [8]: < 1.23 µg/mL
- MIC [4]: ≤ 1.23 µg/mL
- MIC [9]: ≤ 1.23 µg/mL

SMILES: COc1c(N2C[C@H]3CCCN(S(=O)(=O)c4ccc([N+](=O)[O-])cc4)[C@H]3C2)c(F)cc2c(=O)c(C(=O)O)cn(C3CC3)c12
- MIC [6]: < 2.42 µg/mL
- MIC [1]: < 2.42 µg/mL
- MIC [2]: < 2.42 µg/mL
- MIC [3]: < 2.42 µg/mL
- MIC [7]: < 2.42 µg/mL
- MIC [8]: < 2.42 µg/mL
- MIC [4]: < 2.42 µg/mL
- MIC [9]: < 2.42 µg/mL

SMILES: COc1c(N2C[C@H]3CCCN(C(=O)c4ccc(Br)cc4)[C@H]3C2)c(F)cc2c(=O)c(C(=O)O)cn(C3CC3)c12
- MIC [11]: ≤ 1.23 µg/mL
- MIC [6]: < 1.23 µg/mL
- MIC [1]: < 1.23 µg/mL
- MIC [2]: < 1.23 µg/mL
- MIC [3]: < 1.23 µg/mL
- MIC [7]: ≤ 1.23 µg/mL
- MIC [8]: < 1.23 µg/mL
- MIC [4]: ≤ 1.23 µg/mL
- MIC [9]: ≤ 1.23 µg/mL

SMILES: COc1c(N2C[C@H]3CCCN(C(=O)c4ccc(Cl)cc4)[C@H]3C2)c(F)cc2c(=O)c(C(=O)O)cn(C3CC3)c12
- MIC [11]: ≤ 1.23 µg/mL
- MIC [6]: < 1.23 µg/mL
- MIC [1]: < 1.23 µg/mL
- MIC [2]: < 1.23 µg/mL
- MIC [3]: < 1.23 µg/mL
- MIC [7]: ≤ 1.23 µg/mL
- MIC [8]: < 1.23 µg/mL
- MIC [4]: ≤ 1.23 µg/mL
- MIC [9]: ≤ 1.23 µg/mL

SMILES: COc1c(N2CCN(/N=N/c3nc(C)cc(C)n3)CC2)c(F)cc2c(=O)c(C(=O)C(C(C)=O)C(C)=O)cn(C3CC3)c12
- MIC [10]: 0.015 µg/mL (≈ 0.026 µM)
- MIC [4]: 0.015 µg/mL (≈ 0.026 µM)
- MIC [5]: 0.015 µg/mL (≈ 0.026 µM)

SMILES: COc1c(N2C[C@H]3CCCN(Cc4ccc(Br)cc4)[C@H]3C2)c(F)cc2c(=O)c(C(=O)O)cn(C3CC3)c12
- MIC [6]: < 2.39 µg/mL
- MIC [1]: < 2.39 µg/mL
- MIC [2]: < 2.39 µg/mL
- MIC [3]: < 2.39 µg/mL
- MIC [7]: < 2.39 µg/mL
- MIC [8]: < 2.39 µg/mL
- MIC [4]: < 2.39 µg/mL
- MIC [9]: < 2.39 µg/mL
